Experimental data published in the NIST ThermoML archive (doi:10.1021/je030136n).

Assay: xn = mol fraction of the nth substance listed
Conditions: Liquid, Pulse-echo method

CCCCCCC [heptane] + CCCO
Conditions | speed of sound [m/s]
313.15 K, 100 kPa, x2 = 0.1008 | 1061
313.15 K, 100 kPa, x2 = 0.4992 | 1074.8
313.15 K, 30400 kPa, x2 = 0.1008 | 1267.9
313.15 K, 45590 kPa, x2 = 0.4992 | 1349.9
313.15 K, 60790 kPa, x2 = 0.3008 | 1416.4
313.15 K, 75990 kPa, x2 = 0.4992 | 1481.4
313.15 K, 75990 kPa, x2 = 0.7016 | 1486.3
313.15 K, 91190 kPa, x2 = 0.3008 | 1539.3
313.15 K, 91190 kPa, x2 = 0.4992 | 1539.3
313.15 K, 101320 kPa, x2 = 0.4992 | 1575.5
313.15 K, 111450 kPa, x2 = 0.3008 | 1611.5
313.15 K, 121580 kPa, x2 = 0.3008 | 1645.1
313.16 K, 30400 kPa, x2 = 0.7986 | 1293.2
313.16 K, 91190 kPa, x2 = 0.1008 | 1543.3
313.16 K, 101320 kPa, x2 = 0.3008 | 1576.2
313.16 K, 121580 kPa, x2 = 0.4992 | 1643.3
313.17 K, 100 kPa, x2 = 0.3008 | 1065
313.17 K, 30400 kPa, x2 = 0.3008 | 1268.1
313.17 K, 75990 kPa, x2 = 0.3008 | 1480.3
313.17 K, 111450 kPa, x2 = 0.4992 | 1610.1
313.17 K, 111450 kPa, x2 = 0.6027 | 1610
313.17 K, 121580 kPa, x2 = 0.6027 | 1642.9
313.19 K, 101320 kPa, x2 = 0.1008 | 1580.6
313.19 K, 111450 kPa, x2 = 0.1008 | 1616.3
313.19 K, 121580 kPa, x2 = 0.1008 | 1649.7
313.2 K, 111450 kPa, x2 = 0 | 1622
313.2 K, 111450 kPa, x2 = 0.7016 | 1611.6
313.21 K, 101320 kPa, x2 = 0 | 1586.2
313.22 K, 45590 kPa, x2 = 0.7016 | 1358.4
313.22 K, 121580 kPa, x2 = 0.7016 | 1643.9
313.23 K, 30400 kPa, x2 = 0.7016 | 1284.3
313.23 K, 60790 kPa, x2 = 0.7016 | 1425.1
313.24 K, 100 kPa, x2 = 0.7016 | 1095.2
318.08 K, 100 kPa, x2 = 0.7986 | 1090.8
318.09 K, 75990 kPa, x2 = 0 | 1475.5
318.09 K, 121580 kPa, x2 = 0.7016 | 1632.8
318.11 K, 101320 kPa, x2 = 0.7986 | 1569.1
318.12 K, 45590 kPa, x2 = 0.7986 | 1351.4
318.12 K, 60790 kPa, x2 = 0.4992 | 1404.4
318.13 K, 100 kPa, x2 = 0.4992 | 1054.3
318.13 K, 30400 kPa, x2 = 0.7986 | 1277.9
318.13 K, 45590 kPa, x2 = 0.4992 | 1334.8
318.13 K, 111450 kPa, x2 = 0.7986 | 1602.7
318.13 K, 121580 kPa, x2 = 0.4992 | 1631.5
318.14 K, 100 kPa, x2 = 0.7016 | 1076.2
318.14 K, 30400 kPa, x2 = 0.4992 | 1256.9
318.14 K, 75990 kPa, x2 = 0.7986 | 1478
318.14 K, 121580 kPa, x2 = 0.7986 | 1634.8
318.15 K, 30400 kPa, x2 = 0.7016 | 1268.9
318.15 K, 45590 kPa, x2 = 0.7016 | 1344.1
318.15 K, 60790 kPa, x2 = 0.6027 | 1406.9
318.15 K, 60790 kPa, x2 = 0.7016 | 1411.6
318.15 K, 60790 kPa, x2 = 0.7986 | 1417.5
318.15 K, 75990 kPa, x2 = 0.1008 | 1469.4
318.15 K, 91190 kPa, x2 = 0 | 1535.7
318.15 K, 111450 kPa, x2 = 0.4992 | 1598
318.16 K, 45590 kPa, x2 = 0.6027 | 1338.2
318.16 K, 91190 kPa, x2 = 0.7016 | 1530.2
318.16 K, 91190 kPa, x2 = 0.7986 | 1533.9
318.16 K, 101320 kPa, x2 = 0.4992 | 1563
318.16 K, 101320 kPa, x2 = 0.7016 | 1565.9
318.17 K, 45590 kPa, x2 = 0 | 1337.4
318.17 K, 60790 kPa, x2 = 0 | 1409.6
318.17 K, 60790 kPa, x2 = 0.1008 | 1403.9
318.17 K, 75990 kPa, x2 = 0.7016 | 1473.2
318.17 K, 91190 kPa, x2 = 0.3008 | 1526.1
318.17 K, 91190 kPa, x2 = 0.4992 | 1526.3
318.17 K, 101320 kPa, x2 = 0.1008 | 1567.7
318.17 K, 111450 kPa, x2 = 0.1008 | 1603.7
318.17 K, 111450 kPa, x2 = 0.3008 | 1599
318.17 K, 111450 kPa, x2 = 0.7016 | 1600
318.17 K, 121580 kPa, x2 = 0 | 1644.3
318.17 K, 121580 kPa, x2 = 0.1008 | 1637
318.17 K, 121580 kPa, x2 = 0.3008 | 1633
318.18 K, 100 kPa, x2 = 0 | 1044.5
318.18 K, 100 kPa, x2 = 0.1008 | 1039.7
318.18 K, 15200 kPa, x2 = 0 | 1163.4
318.18 K, 15200 kPa, x2 = 0.1008 | 1157.8
318.18 K, 30400 kPa, x2 = 0 | 1256.5
318.18 K, 75990 kPa, x2 = 0.3008 | 1466.5
318.18 K, 75990 kPa, x2 = 0.4992 | 1467.8
318.18 K, 101320 kPa, x2 = 0 | 1573.6
318.18 K, 101320 kPa, x2 = 0.3008 | 1563.3
318.18 K, 111450 kPa, x2 = 0 | 1609.8
318.18 K, 121580 kPa, x2 = 0.6027 | 1631.3
318.19 K, 30400 kPa, x2 = 0.3008 | 1251.4
318.19 K, 45590 kPa, x2 = 0.1008 | 1331.6
318.19 K, 45590 kPa, x2 = 0.3008 | 1330.8
318.19 K, 60790 kPa, x2 = 0.3008 | 1401.9
318.2 K, 100 kPa, x2 = 0.6027 | 1063.5
318.2 K, 30400 kPa, x2 = 0.1008 | 1250.7
318.2 K, 101320 kPa, x2 = 0.6027 | 1563.5
318.21 K, 100 kPa, x2 = 0.3008 | 1043.8
318.21 K, 91190 kPa, x2 = 0.6027 | 1527.2
318.23 K, 30400 kPa, x2 = 0.6027 | 1261.4
318.23 K, 111450 kPa, x2 = 0.6027 | 1598
318.27 K, 75990 kPa, x2 = 0.6027 | 1469.2
